Laboratory results published in patent US20160030415A1, “TREATMENT AND PROPHYLAXIS OF KIDNEY DISEASES” (priority 2013, published 2016).

Tests used:
[1] = test system: STZ induced diabetic nephropathy in rats; test: Study 3: HCQ and its combination with Losartan, Telmisartan, Azilsartan and Ramipril; type: in vivo, Wistar rats; details: oral once daily 8 weeks
Method: The methods described in Terri et al, Diabetes Volume, 1997, 46:1612-1618, and Takashi et al, Jpn J. Pharmacol, 1997, 75, 59-64, were followed for inducing Diabetes in rats by injecting Streptozotocin. The Efficacy of the drugs was tested in two different models, one involving comparison with diabetic control (i.e. Diabetic Rats not treated with any medication) and the other involving comparison with the anti-diabetic control group (i.e. Diabetic rats administered Glimepiride) in two separate studies.
Male Wistar rats weighing 150-350 g were divided randomly into 29 groups consisting of 6 animals each. Diabetes was induced in rats by single administration of streptozotocin (55 mg/kg/i.p) dissolved in 0.1 M-citrate buffer, pH 4.5. Group 1 (normal control) consisted of normal rats that neither received streptozotocin nor any test drug; Group 2 consisted of normal rats treated with vehicle, Group 3 served as Streptozotocin (STZ) induced diabetic control. Group 4 was diabetic rats treated with Losartan (LT) (5.5 mg/kg); Group 5 was diabetic rats treated with LT (11 mg/kg); Group 6 was diabetic rats treated with Hydroxychloroquine (HCQ) (22.5 mg/kg), Group 7 was diabetic rats treated with HCQ (45 mg/kg); Group 8 was diabetic rats treated with combination of LT (5.5 mg/kg) and HCQ (22.5 mg/kg); Group 9 was diabetic rats treated with combination of LT (5.5 mg/kg) and HCQ (45 mg/kg); Group 10 was diabetic rats treated with LT (11 mg/kg) and HCQ (22.5 mg/kg); Group 11 was diabetic rats treated with LT (11 mg/kg) and HCQ (45 mg/kg); Group 12 was diabetic rats treated with Telmisartan (TL) (5 mg/kg); Group 13 was diabetic rats treated with Telmisartan (TL) (10 mg/kg); Group 14 was diabetic rats treated with the combination of TL (5 mg/kg) and HCQ (22.5 mg/kg); Group 15 was diabetic rats treated with the combination of TL (5 mg/kg) and HCQ (45 mg/kg); Group 16 was diabetic rats treated with the combination of TL (10 mg/kg) and HCQ (22.5 mg/kg); Group 17 was diabetic rats treated with the combination of TL (10 mg/kg) and HCQ (45 mg/kg); Group 18 was diabetic rats treated with Azilsartan (AZ) (2 mg/kg); Group 19 was diabetic rats treated with Azilsartan (AZ) (4 mg/kg); Group 20 was diabetic rats treated with combination of AZ (2 mg/kg) and HCQ (22.5 mg/kg); Group 21 was diabetic rats treated with combination of AZ (2 mg/kg) and HCQ (45 mg/kg); Group 22 was diabetic rats treated with combination of AZ (4 mg/kg) and HCQ (22.5 mg/kg); Group 23 diabetic rats treated with combination of AZ (4 mg/kg) and HCQ (45 mg/kg); Group 24 was diabetic rats treated with Ramipril (RM) (0.2 mg/kg); Group 25 was diabetic rats treated with RM (2.3 mg/kg); Group 26 was diabetic rats treated with combination of RM […]) and HCQ (22.5 mg/kg); Group 27 was diabetic rats treated with combination of RM (0.2 mg/kg) and HCQ (45 mg/kg); Group 28 was diabetic rats treated with combination of RM (2.3 mg/kg) and HCQ (22.5 mg/kg); Group 29 was diabetic rats treated with combination of RM (2.3 mg/kg) and HCQ (45 mg/kg). The study drugs (LT and HCQ) were dissolved in distilled water and other study drugs (AZ, RM and TL) were suspended in 0.5% w/v sodium carboxy methyl cellulose (CMC) and administered orally once a day for eight weeks. Biochemical parameters like serum urea, serum creatinine, serum protein, and renal oxidative stress parameters like TBARS and GSH were assessed after the completion of eighth week of the study.

[2] = test system: Streptozotocin (STZ) induced diabetic rats; test: Study 2: HCQ and its combination with Losartan in comparison with anti-diabetic control (Glimepiride) in renal damage; type: in vivo, Wistar rats; details: for Serum Creatinine after 8th week / Serum Creatinine after 8th week (% Control) / Total Serum Protein Levels after 8th week / Total Serum Protein Levels after 8th week (% Control): Glimepiride 8 mg/kg alone (antidiabetic control) or with Losartan 11 mg/kg and/or Hydroxychloroquine 45 mg/kg, oral once daily; for Total Protein in Kidney Homogenate (% Control) / Total Protein in Kidney Homogenate Mean / TBARS (% Control) / TBARS Mean: after 8th week, Glimepiride 8 mg/kg alone or with Losartan 11 mg/kg and/or Hydroxychloroquine 45 mg/kg; for TBARS (% Control) / TBARS Mean: kidney homogenate
Method: The Efficacy of the drugs was tested in two different models, one involving comparison with diabetic control (i.e. Diabetic Rats not treated with any medication) and the other involving comparison with the anti-diabetic control group (i.e. Diabetic rats administered Glimepiride) in two separate studies. 30 Wistar rats of either sex weighing 150-250 g were divided randomly into 5 groups consisting of 6 animals each. Diabetes was induced in rats by single administration of Streptozotocin (STZ)(55 mg/kg/i.p) dissolved in 0.1 M-citrate buffer, pH 4.5. Group 1 (normal control) consisted of normal rats that neither received streptozotocin nor any test drug; Group 2 served as Anti-Diabetic control wherein diabetic rats were treated with antidiabetic drug Glimepiride. Group 3 was diabetic rats treated with Losartan (11 mg/kg); Group 4 was diabetic rats treated with Hydroxychloroquine (45 mg/kg) and Group 5 was diabetic rats treated with combination of Hydroxychloroquine (45 mg/kg) and Losartan (11 mg/kg). The study drugs were dissolved/suspended in distilled water and administered orally once a day for eight weeks. The diabetes mellitus induced nephropathy was assessed by estimating the level of serum creatinine and total serum protein content after completion of eighth week of study. TBARS and Total Protein were measured as markers of renal oxidative stress in Kidney Homogenate after completion of eighth week of study.

[3] = dose mg/kg: LT 5.5, TL 5, AZ 2, RM 0.2, HCQ 22.5, alone or combined with HCQ 22.5
[4] = dose mg/kg: LT 11, TL 10, AZ 4, RM 2.3, HCQ 45, alone or combined with HCQ 45

With `CCOc1nc2cccc(C(=O)O)c2n1Cc1ccc(-c2ccccc2-c2nc(=O)o[nH]2)cc1` [Azilsartan] the Creatinine clearance [1, 3] was 0.69 ± 0.05 mL/min, the GSH [1, 3] was 9.54 ± 1.54 nM/mg and the Serum creatinine [1, 3] was 0.98 ± 0.07 mg/dL. For the same molecule, the Serum protein [1, 3] was 5.79 ± 0.37 g/dL, the Serum urea [1, 3] was 89.83 ± 4.67 mg/dL and the TBARS [1, 3] was 0.624 ± 0.11 nM/mg. The Urea clearance [1, 3] was 0.41 ± 0.07 mL/min, the Creatinine clearance [1, 4] was 0.74 ± 0.04 mL/min and the GSH [1, 4] was 13.49 ± 0.90 nM/mg. It also gave a Serum creatinine [1, 4] of 0.87 ± 0.04 mg/dL, a Serum protein [1, 4] of 6.76 ± 0.16 g/dL and a Serum urea [1, 4] of 75.94 ± 4.11 mg/dL. For the same molecule, the TBARS [1, 4] was 0.540 ± 0.04 nM/mg and the Urea clearance [1, 4] was 0.44 ± 0.03 mL/min.
`CCN(CCO)CCCC(C)Nc1ccnc2cc(Cl)ccc12` (centres unmarked) [Hydroxychloroquine, 2-[{4-[(7-chloroquinolin-4-yl)amino]pentyl}(ethyl)amino]ethanol] was tested, and the “Serum Creatinine after 8th week” value [2] was 2.80 mg/dL, the “Serum Creatinine after 8th week (% Control)” value [2] was “(88.33) % Control” and the “Total Serum Protein Levels after 8th week” value [2] was 5.39 g/dL. For the same molecule, the “Total Serum Protein Levels after 8th week (% Control)” value [2] was “(112.24) % Control”, the “Total Protein in Kidney Homogenate (% Control)” value [2] was “(107.68) % Control” and the “Total Protein in Kidney Homogenate Mean” value [2] was 1003.83 µg/mL. For the same molecule, the “TBARS (% Control)” value [2] was “(57.32) % Control”, the “TBARS Mean” value [2] was 0.47 nM/mg and the Creatinine clearance [1, 3] was 0.60 ± 0.06 mL/min. For the same molecule, the GSH [1, 3] was 8.59 ± 0.76 nM/mg, the Serum creatinine [1, 3] was 0.87 ± 0.07 mg/dL and the Serum protein [1, 3] was 5.57 ± 0.20 g/dL. For the same molecule, the Serum urea [1, 3] was 91.29 ± 7.29 mg/dL, the TBARS [1, 3] was 0.726 ± 0.06 nM/mg and the Urea clearance [1, 3] was 0.36 ± 0.03 mL/min. The Creatinine clearance [1, 4] was 0.67 ± 0.10 mL/min, the GSH [1, 4] was 14.29 ± 1.33 nM/mg and the Serum creatinine [1, 4] was 0.74 ± 0.12 mg/dL. The Serum protein [1, 4] was 5.95 ± 0.31 g/dL, the Serum urea [1, 4] was 83.64 ± 6.60 mg/dL and the TBARS [1, 4] was 0.608 ± 0.06 nM/mg. It also gave a Urea clearance [1, 4] of 0.42 ± 0.04 mL/min.
With `CCCCc1nc(Cl)c(CO)n1Cc1ccc(-c2ccccc2-c2nn[nH]n2)cc1` [Losartan] the “Serum Creatinine after 8th week” value [2] was 3.00 mg/dL, the “Serum Creatinine after 8th week (% Control)” value [2] was “(94.64) % Control” and the “Total Serum Protein Levels after 8th week” value [2] was 5.45 g/dL. The “Total Serum Protein Levels after 8th week (% Control)” value [2] was “(113.21) % Control”, the “Total Protein in Kidney Homogenate (% Control)” value [2] was “(98.15) % Control” and the “Total Protein in Kidney Homogenate Mean” value [2] was 909.50 µg/mL. The “TBARS (% Control)” value [2] was “(76.83) % Control”, the “TBARS Mean” value [2] was 0.63 nM/mg and the Creatinine clearance [1, 3] was 0.59 ± 0.06 mL/min. For the same molecule, the GSH [1, 3] was 8.66 ± 0.48 nM/mg, the Serum creatinine [1, 3] was 1.23 ± 0.18 mg/dL and the Serum protein [1, 3] was 5.23 ± 0.31 g/dL. For the same molecule, the Serum urea [1, 3] was 101.45 ± 2.69 mg/dL, the TBARS [1, 3] was 0.760 ± 0.05 nM/mg and the Urea clearance [1, 3] was 0.33 ± 0.02 mL/min. It also gave a Creatinine clearance [1, 4] of 0.67 ± 0.12 mL/min, a GSH [1, 4] of 12.78 ± 1.48 nM/mg and a Serum creatinine [1, 4] of 0.99 ± 0.05 mg/dL. For the same molecule, the Serum protein [1, 4] was 5.75 ± 0.23 g/dL, the Serum urea [1, 4] was 93.10 ± 4.45 mg/dL and the TBARS [1, 4] was 0.670 ± 0.05 nM/mg. For the same molecule, the Urea clearance [1, 4] was 0.44 ± 0.03 mL/min.
`CCOC(=O)[C@H](CCc1ccccc1)N[C@@H](C)C(=O)N1[C@H](C(=O)O)C[C@@H]2CCC[C@@H]21` [Ramipril] showed a Creatinine clearance [1, 3] of 0.54 ± 0.05 mL/min, a GSH [1, 3] of 8.48 ± 0.59 nM/mg and a Serum creatinine [1, 3] of 0.90 ± 0.05 mg/dL. The Serum protein [1, 3] was 5.30 ± 0.36 g/dL, the Serum urea [1, 3] was 98.33 ± 6.15 mg/dL and the TBARS [1, 3] was 0.716 ± 0.06 nM/mg. It also gave a Urea clearance [1, 3] of 0.41 ± 0.05 mL/min, a Creatinine clearance [1, 4] of 0.61 ± 0.07 mL/min and a GSH [1, 4] of 10.57 ± 0.37 nM/mg. The Serum creatinine [1, 4] was 0.85 ± 0.06 mg/dL, the Serum protein [1, 4] was 5.67 ± 0.27 g/dL and the Serum urea [1, 4] was 87.83 ± 5.23 mg/dL. The TBARS [1, 4] was 0.614 ± 0.06 nM/mg and the Urea clearance [1, 4] was 0.45 ± 0.05 mL/min.
`CCCc1nc2c(C)cc(-c3nc4ccccc4n3C)cc2n1Cc1ccc(-c2ccccc2C(=O)O)cc1` [Telmisartan] gave a Creatinine clearance [1, 3] of 0.73 ± 0.07 mL/min, a GSH [1, 3] of 9.65 ± 1.24 nM/mg and a Serum creatinine [1, 3] of 1.02 ± 0.13 mg/dL. The Serum protein [1, 3] was 5.94 ± 0.46 g/dL, the Serum urea [1, 3] was 92.39 ± 4.06 mg/dL and the TBARS [1, 3] was 0.675 ± 0.07 nM/mg. It also gave a Urea clearance [1, 3] of 0.45 ± 0.05 mL/min, a Creatinine clearance [1, 4] of 0.77 ± 0.04 mL/min and a GSH [1, 4] of 13.82 ± 0.34 nM/mg. It also gave a Serum creatinine [1, 4] of 0.78 ± 0.07 mg/dL, a Serum protein [1, 4] of 6.53 ± 0.40 g/dL and a Serum urea [1, 4] of 82.71 ± 6.53 mg/dL. It also gave a TBARS [1, 4] of 0.560 ± 0.06 nM/mg and a Urea clearance [1, 4] of 0.47 ± 0.04 mL/min.
